In patent US20090203892A1, “Retrotransposon Inhibition in Therapy” (ISTITUTO SUPERIORE DI SANITA, priority 2004, published 2009):

Experiments:
[1] = system: E-cadherin, c-myc, bcl-2 and cyclin D1 genes in A-375 melanoma cells; assay: Gene expression by semiquantitative RT-PCR in RT-inhibited cultures; assay type: cell-based, Human; details: four cycles, compared to controls
Procedure: Each oligo pair was used in sequential amplification series with increasing numbers (25 to 40) of cycles. PCR products were electrophoresed, transferred to membranes and hybridized for 16 h at 42 C.° with [^32P]γ-ATP end-labelled internal oligonucleotides. The intensity of the amplification signal was measured by densitometry in at least three independent experiments for each gene. [table] […] This was investigated in semiquantitative RT-PCR analysis of cultures treated with DMSO only, or nevirapine or efavirenz for four cycles. In A-375 melanoma cells, we focussed on a set of four genes: the E-cadherin gene, involved in cell-cell adhesion and expressed in differentiated but not in tumor cells (24); and the c-myc, bcl-2 (25) and cyclin D1 (26) genes, which are directly implicated in melanoma cell proliferation and tumor growth.

[2] = system: PC3 prostate cancer cells; assay: Tumorigenicity of efavirenz-pretreated PC3 cells inoculated in nude mice; assay type: in vivo
Procedure: (§1) Controls were injected with 50% DMSO.
We also investigated whether pretreatment of transformed cells with efavirenz would modify the tumorigenic potential of derived xenografts. PC3 prostate cancer cells were cultured with 20 μM efavirenz for two 96 h-cycles, a time that was sufficient for induction of the PSA and AR genes (FIG. 3B), and subsequently inoculated in nude mice.
Untreated cells were inoculated in parallel batches of animals. Efavirenz-pretreated, or untreated, PC3 cell xenografts were then either continuously treated with efavirenz in vivo or were left untreated. […] As summarized in FIG. 6 B, efavirenz-pretreated PC3 cells developed slowly-growing xenografts in 65% of the inoculated animals, compared to 100% using untreated cells. […] Thus, efavirenz attenuates the tumorigenic potential of transformed cells.

endogenous RT = details: non-infected cells in vitro (ref. 19); cited from earlier work
A-375 melanoma xenograft = assay: Human tumor xenograft growth in athymic nude mice; assay type: in vivo; details: 20 mg/kg s.c. daily five days a week, start one day or one week after inoculation; vs untreated
Procedure: as §1

[3] = system: H69 small cell lung carcinoma xenograft; assay: Human tumor xenograft growth in athymic nude mice; assay type: in vivo; details: 20 mg/kg s.c. daily five days a week, start one day or one week after inoculation; vs untreated
Procedure: as §1

PC3 xenograft = assay: Human tumor xenograft growth in athymic nude mice; assay type: in vivo
Procedure: as §1

HT29 colon xenograft = assay: Human tumor xenograft growth in athymic nude mice; assay type: in vivo
Procedure: as §1

[4] = Preliminary in vivo assays of RT inhibitors
A-375 melanoma cells = assay: Morphological differentiation (phase contrast, SEM, confocal microscopy); assay type: cell-based, Human; details: compared to DMSO-treated controls
Procedure: (§2) A-375 and TVM-A12 cells were fixed with 4% para-formaldehyde for 10 min and permeabilized in 0.2% Triton-X 100 in PBS for 5 min. […] Confocal sections were taken at 0.5-1 μm intervals. A-375 and TVM-A12 cells were fixed in 2.5% glutaraldehyde in 0.1 M Millonig's phosphate buffer. After washing, cells were post-fixed with 1% OsO4 (1 h, 4° C.) in MPB and dehydrated using increasing acetone concentrations. Samples were critical-point dried using liquid CO2 and sputter-coated with gold before examination on a Stereoscan 240 scanning electron microscope (Cambridge Instr., Cambridge, UK).

[5] = system: TVM-A12 primary melanoma-derived cell line; assay: Cell growth under prolonged exposure to RT inhibitors; assay type: cell-based, Human; details: for reversibility of growth inhibition: after removal of RT inhibitors, within one or two 96 h-cycles; for cell growth: nevirapine 350 μM, efavirenz 15 μM, five 96 h-cycles
Procedure: (§3) Human A-375 melanoma (ATCC-CRL-1619), TVM-A12 primary melanoma-derived (20), HT29 adenocarcinoma (ATCC HTB-38), H69 small cell lung carcinoma (SCLC) (ATCC HTB119), and PC3 prostate carcinoma (ATCC CRL-1435) cell lines were seeded in six-well plates at a density of 10^4 to 5×10^4 cells/well and cultured in DMEM or RPMI1640 medium with 10% fetal bovine serum. Nevirapine and Efavirenz were purified from commercially available Viramune (Boehringer-Ingelheim) and Sustiva (Bristol-Myers Squibb) as described (18). The drugs were made 350 and 15 μM in dimethyl sulfoxide (DMSO, Sigma-Aldrich), respectively, and added to cells 5 h after seeding; the same DMSO volume (0.2% final concentration) was added to controls. Fresh RT inhibitor-containing medium was changed every 48 h. Cells were harvested every 96 h, counted in a Burker chamber (two countings/sample) and replated at the same density.

PC3 prostate carcinoma = assay: as above; assay type: cell-based, Human; details: for reversibility of growth inhibition: after removal of RT inhibitors, within one or two 96 h-cycles; for cell growth: nevirapine 350 μM, efavirenz 15 μM, five 96 h-cycles
Procedure: as §3

A-375 melanoma = assay: as above; assay type: cell-based, Human; details: for reversibility of growth inhibition: after removal of RT inhibitors, within one or two 96 h-cycles; for cell growth: nevirapine 350 μM, efavirenz 15 μM, five 96 h-cycles
Procedure: as §3

[6] = Procedure: Five-week old athymic nude mice (Harlan, Italy), kept in accordance with the European Union guidelines, were inoculated sub-cutaneously with A-375 melanoma (4×10^6), H-69 (10^7), PC3 (2×10^6) and HT-29 (10^6) cells in 100 μl PBS. […] Controls were injected with 50% DMSO. Treatment started one day or one week after tumor implant, and, in some experiments, was discontinued after 14 days. Tumor growth was monitored every other day by caliper measurements; volumes were calculated using the formula: […]
Cells were inoculated subcutaneously in the limb of athymic nude mice.

primary TVM-A12 cells = assay: Morphological differentiation (phase contrast, SEM, confocal microscopy); assay type: cell-based, Human; details: compared to untreated cells
Procedure: as §2

[7] = 20 mg/kg s.c. daily five days a week, start one day or one week after inoculation, vs untreated
[8] = treated from day one, treatment discontinuation after day 15

Structure (SMILES) | inhibition of the enzymatic activity of the endogenous RT (endogenous RT) | morphological differentiation (A-375 melanoma cells) | reversibility of growth inhibition [5] | cell growth [5] | reversibility of growth inhibition (PC3 prostate carcinoma) | cell growth (PC3 prostate carcinoma) | reversibility of growth inhibition (A-375 melanoma) | cell growth (A-375 melanoma) | further results
O=C1Nc2ccc(Cl)cc2[C@@](C#CC2CC2)(C(F)(F)F)O1 [efavirenz, Efavirenz] | inhibit the enzymatic activity of the endogenous RT | became evident within four-five days | reversible | effectively reduce cell growth | reversible | effectively reduce cell growth | reversible | effectively reduce cell growth | expression of the cyclin D1 gene [1]: failed to down-regulate cyclin D1 expression; inoculated animals developing xenografts ([2]; cells pretreated with 20 μM efavirenz for two 96 h-cycles, no treatment in vivo, 100% using untreated cells, 30 days): 65 % of the inoculated animals; xenograft growth ([2]; efavirenz-pretreated cells, no treatment in vivo): xenografts grew more slowly; xenograft growth ([2]; pretreated cells and further treated with efavirenz in vivo): the growth curve was flat; animals developing a tumor ([2]; pretreated cells and further treated with efavirenz in vivo, 30 days): 40 % of the animals; tumor growth (A-375 melanoma xenograft): markedly reduced; tumor growth [3]: markedly reduced; tumor growth (PC3 xenograft; [7]): markedly reduced; reversibility of inhibition of tumor growth (PC3 xenograft; [8]): reversible in vivo; tumor growth (HT29 colon xenograft; [7]): markedly reduced; reversibility of inhibition of tumor growth (HT29 colon xenograft; [8]): reversible in vivo; in vivo effectiveness relative to nevirapine [4]: higher in vivo effectiveness than nevirapine; animal death or signs of toxicity ([6]; 4 to 40 mg/kg, all animal groups): no animal death or explicit signs of toxicity in any of the groups; animals with significant decrease of body weight ([6]; group treated with 40 mg/kg): more than 60 % of animals
Cc1ccnc2c1NC(=O)c1cccnc1N2C1CC1 [nevirapine, Nevirapine] | inhibit the enzymatic activity of the endogenous RT | became evident within four-five days | reversible | effectively reduce cell growth | reversible | effectively reduce cell growth | reversible | effectively reduce cell growth | morphological differentiation (primary TVM-A12 cells): formed instead typical branched dendrites
